The text below walks through data of paper PMC12389155 (Pharmaceuticals, 2025).

One series deals with HCT 116 cells. Briefly: MTT cytotoxicity assay in HCT 116 colorectal cancer cells. The format is cell-based. Conditions: Homo sapiens, HCT 116, 48 h exposure, ± SEM, read-out: IC50 (cytotoxic activity). As for the experimental part:
(§1) The colorectal cancer cell line HCT 116 (ATCC CCL-247) was grown in Roswell Park Memorial Institute 1640 Medium (RPMI, Biochrom Ltd., Cambridge, UK), and the breast cancer cell line MDA-MB-231 (ATCC HTB-26, American Type Culture Collection, Manassas, VA, USA) was maintained in Dulbecco’s Modified Eagle Medium (DMEM, Biochrom Ltd., Cambridge, UK) supplemented with 10% (v/v) fetal bovine serum (FBS, Biochrom Ltd., Cambridge, UK) and 1% (v/v) penicillin-streptomycin (p/s, Biochrom) on tissue-culture-treated flasks. The human fibroblast BJ-5ta cell line (ATCC CRL-2522) was grown in a 4:1 proportion of DMEM:Medium 199 (PAN-Biotech GmbH, Aidenbach, Germany), supplemented with 10% (v/v) FBS, 1% (v/v) p/s, and 0.01% (v/v) hygromycin B (Sigma-Aldrich, St. Louis, MO, USA). All cell lines were authenticated and tested for mycoplasma contamination. Cells were incubated at 37 °C with 5% CO2 and 95% relative humidity. […] Cell counts were determined using a hemocytometer. […]
(§2) After the incubation period, the culture media was discarded from each well, and 100 µL (0.5 mg/mL) was added. […] Cell viability was determined based on the absorbance measured at 570 nm using a microplate reader (Cytation 3, BioTek Instruments, Winooski, VT, USA). The absorbance of untreated cells or DMSO-treated cells was considered at 100% cell viability. […]
A general note: Tetrazolium assays rely on reduction of a dye to a coloured formazan, in cell work by metabolically active cells.

For a further series, the system named is MDA-MB-231 cells. Briefly: MTT cytotoxicity assay in MDA-MB-231 triple-negative breast cancer cells. The format is cell-based. Conditions: Homo sapiens, MDA-MB-231, 48 h exposure, ± SEM, read-out: IC50 (cytotoxic activity). As for the experimental part:
as §1, §2

A further series deals with COR-L23 cells. Further details: method as in PMID 21366300. Conditions: COR-L23 lung cancer cells; read-out: IC50 nucleoside-nucleobase transport inhibition; cited from earlier work.
The nature of the next series: Aqueous solubility. The format is physicochemical.
A further series deals with EGFR. More on the design: method as in PMID 22753156, PMID 15199094. The note with it: cited from earlier work.

Turning to `O=c1[nH]cc(F)c(=O)[nH]1` [5-FU, 5-Fluorouracil], the results for the IC50 in the series on HCT 116 cells and in the series with MDA-MB-231 cells were 10.4 ± 0.68 µM and 183 ± 17.1 µM, respectively.
`COc1ccc(CCc2nc(NCC(C)O)nc3c(NCc4ccc(OC)c(OC)c4)nc(CCC(C)OC(=O)Nc4ccccc4)nc23)cc1OC` (stereo not drawn) [IV]: the concentration for half-maximal inhibition (IC50) in the series on COR-L23 cells was 0.008 µM.
On to `O=C(NNc1ncnc2c(Nc3ccc(OC(F)(F)F)cc3)ncnc12)c1ccccc1` [PP, N’-(8-((4-(Trifluoromethoxy)phenyl)amino)pyrimido[5,4-d]pyrimidin-4-yl)benzohydrazide], for which the IC50 with HCT 116 cells came to 2.04 ± 0.45 µM; with MDA-MB-231 cells, 5.24 ± 0.24 µM. The “Solubility in aqueous medium” value in “Aqueous solubility” is recorded as “poor solubility in aqueous medium”.
Turning to `COc1ccc(NC(=O)OC(C)CCc2nc(NCc3ccc(OC)c(OC)c3)c3nc(NCC(C)OC(=O)CCC(=O)O)nc(CCc4ccc(OC)c(OC)c4)c3n2)cc1` (stereo not drawn) [VI], the IC50 with COR-L23 cells is 0.007 µM.
As to `COc1ccc(NC(=O)OC(C)CCc2nc(NCc3ccc(OC)c(OC)c3)c3nc(NCC(C)O)nc(CCc4ccc(OC)c(OC)c4)c3n2)cc1` (stereo not drawn) [V], the half-inhibitory concentration (IC50) in the series with COR-L23 cells is 0.004 µM.
Consider `CCN(CC)CC1CCN(c2ncc3ncnc(Nc4ccc(F)c(Cl)c4)c3n2)CC1` [compound III], for which the “Activity as EGFR tyrosine kinase inhibitors” value in the series with EGFR was “nanomolar range”.

As usually defined, the IC50 is the midpoint of a concentration-inhibition curve.
